In brackets after ≈: the same amount, converted by molar mass. Residues, ends and D or L forms follow the SMILES beside them.
Columns and labels:
[1] = test system: Pseudomonas aeruginosa strain H1001 fliC::luxCDABE; experiment: Luminescence (lux) killing assay, peptides cleaved from cellulose support; format: cell-based; parameters: key: − for minimal or no activity; + for weak activity; +/++ for intermediate activity; ++ strong activity; conditions: P. aeruginosa strain H1001, 4 hours incubation, luminescence as indicator
Procedure: Assay for the cleaved peptides from cellulose support. The peptides were cleaved from the dried membrane in an ammonia atmosphere overnight, resulting in free peptides with an amidated C-terminus. The free peptides contained two β-alanines at the C-terminus, in addition to being amidated due to the linker between the cellulose membrane and the peptide sequence. The peptide spots were punched out and transferred in a 96-well microtiter plate. Serial dilutions were carried out from the membrane spots. Four rows were filled with four controls including 2×Bac2A and 2× an unrelated peptide. The other eight rows were used for serial dilution steps of the peptide variants. An overnight culture of Pseudomonas aeruginosa strain H1001 was diluted 1:500 using either LB media or 100 mM Tris buffer pH 7.3, 20 mM glucose and was added to the wells (100 μl/well) containing the peptide spots. In all other wells 50 μl were added. The microtiter plate was incubated for 30 min at 37° C. to release the peptides from the membrane. Subsequently, a dilution series were performed and the plate was incubated at 37° C. The luminescence produced by the FMN dependent luciferase system were detected in a time dependent manner using a Tecan Spectra Fluor plus.
(§1) Strains. For the killing assay a mini-Tn5-lux mutant in Pseudomonas aeruginosa H103 was used. The strain is called H1001 and contains a fliC::luxCDABE transcriptional fusion resulting in constitutive expression of luciferase. The bacterial strains used for the antimicrobial activity assays included Escherichia coli UB1005 (F-, nalA37, metB1), a wild-type Salmonella enterica ssp. typhimurium (S. typhimurium), wild-type Pseudomonas aeruginosa PAO1 strain H103, Enterococcus faecalis ATCC29212, Staphylococcus aureus ATCC25923, and a clinical isolate of Staphylococcus epidermidis obtained from Dr. D. Speert (Department of Medicine, University of British Columbia). Antifungal activity was tested using a lab isolate of Candida albicans obtained from Dr. B. Dill (Department of Microbiology and Immunology, University of British Columbia).
Peptide synthesis on cellulose is a very effective and inexpensive way to investigate many different peptide variants for one particular activity. However, one of the problems of this technique is the low peptide amount synthesized on the membrane, about 280 nmol per cm^2. An average peptide spot used for the experiments presented is about 0.3 cm^2. Therefore, an assay had to be developed that was sensitive enough to show activity with this amount of peptides. P. aeruginosa H1001 has a luciferase gene cassette incorporated into the bacterial chromosome in a gene fliC (involved in flagellar biosynthesis) that is constitutively expressed. It will thus produce light if FMN is present. When this strain is killed, e.g. by peptides, the amount of light produced will decrease due to a decrease in FMN levels in the killed cells. This action can thus be monitored by detecting luminescence in a microtiter plate luminescence reader over time. The volume and amount of cells per well were optimized for this assay. After screening, we were able to monitor the killing action with small amounts of the parent peptide Bac2A (2 μg/ml of free peptide).

[2] = test system: Pseudomonas aeruginosa PAO1 strain H103; format: cell-based; conditions: for MIC: PAO1; for antimicrobial activity against P. aeruginosa PAO1 (in words): laboratory strain P. aeruginosa PAO1
Procedure: The biological activity of the peptides can be determined by standard methods known to those of skill in the art, such as “minimal inhibitory concentration (MIC)” assay described in the present examples, whereby the lowest concentration at which no change in OD is observed for a given period of time is recorded as MIC.
Minimal inhibitory concentration (MIC) determination. The MIC of the peptides were measured using a modified broth microdilution method in Mueller Hinton (MH) medium (Wu M, Hancock R E W. 1999. Interaction of the cyclic antimicrobial cationic peptide bactenecin with the outer and cytoplasmic membrane. J Biol Chem 274, 29-35). Briefly, the peptides were dissolved and stored in glass vials. The assay was performed in sterile 96-well polypropylene microtitre plates were used. Serial dilutions of the peptides to be assayed were performed in 0.01% acetic acid (Fisher) containing 0.2% bovine serum albumin (Boehringer Mannheim GmbH) at 10× the desired final concentration. Ten microlitres of the 10× peptides were added to each well of a 96-well polypropylene plate containing 90 μl of MH media per well. Bacteria were added to the plate from an overnight culture at 2-7×10^5 colony forming units/ml and incubated over night at 37° C. The MIC was taken as the concentration at which no growth was observed.
as §1

KFKWWKYRK [HH990]
Antimicrobial activity [1]: ++

CC[C@H](C)[C@H](NC(=O)[C@H](CCC(N)=O)NC(=O)[C@H](CCCNC(=N)N)NC(=O)[C@H](CCCNC(=N)N)NC(=O)CNC(=O)[C@@H](N)CCCNC(=N)N)C(=O)NCC(=O)N[C@@H](CCCCN)C(=O)N[C@@H](Cc1ccccc1)C(N)=O [HHC189, RGRRQIGKF] (H-RGRRQIGKF-NH2; N-terminus assumed)
MIC [2]: 379 µM (≈ 423 µg/mL)
antimicrobial activity against P. aeruginosa PAO1 (in words) [2]: did not posses any antimicrobial activity

KFRWWPWRR [HH984]
Antimicrobial activity [1]: ++

KKPWWPWRR [HH977]
Antimicrobial activity [1]: +

CSCC[C@H](NC(=O)[C@H](CCCNC(=N)N)NC(=O)[C@H](Cc1c[nH]cn1)NC(=O)[C@H](CCCNC(=N)N)NC(=O)[C@H](CO)NC(=O)CNC(=O)[C@H](CCCNC(=N)N)NC(=O)[C@H](Cc1ccccc1)NC(=O)[C@H](C)N)C(N)=O [HHC152, AFRGSRHRM] (H-AFRGSRHRM-NH2; N-terminus assumed)
MIC [2]: 506 µM (≈ 565 µg/mL)
antimicrobial activity against P. aeruginosa PAO1 (in words) [2]: did not posses any antimicrobial activity

PWKPWRR [HH998]
Antimicrobial activity [1]: −

KFPWWPWRR [HH976]
Antimicrobial activity [1]: +

KFFKFKK [HH1009]
Antimicrobial activity [1]: −

KWWKWKK [HH1008]
Antimicrobial activity [1]: +

PWWKWRR [HH999]
Antimicrobial activity [1]: +

KFRWWKWRR [HH985]
Antimicrobial activity [1]: ++

PWWPWRR [HH993]
Antimicrobial activity [1]: +

KKKWWKWRR [HH987]
Antimicrobial activity [1]: ++

KWPWWPKRR [HH982]
Antimicrobial activity [1]: +

KWWPWRR [HH994]
Antimicrobial activity [1]: +

KFKFFKFRK [HH992]
Antimicrobial activity [1]: +

PWWPWRK [HH1001]
Antimicrobial activity [1]: −

KWRWWPWRR [HH978]
Antimicrobial activity [1]: ++

KWPWWPWRK [HH975]
Antimicrobial activity [1]: +

RWWPWRR [HH996]
Antimicrobial activity [1]: +

KFHWWIWRK [HH988]
Antimicrobial activity [1]: ++

RFFKFRR [HH1007]
Antimicrobial activity [1]: −

— US8343475B2, “Small cationic antimicrobial peptides” (priority 2006, dated 2013)
